Assay results from patent publication US20100029654A1, “CARDIOVASCULAR COMPOSITIONS AND USE OF THE SAME FOR THE TREATMENT OF ALZHEIMER'S DISEASE” (MOUNT SINAI SCHOOL OF MEDICINE, priority 2006, published 2010).
Where a name gives a salt, the structure may show the parent alone. Read-outs that look alike come from different tables or passages of the source.

Experiments:
[1] = system: primary cortico-hippocampal neuron cultures; assay: MTT in primary screening
Aβ1-40 = Aβ1-40 content in conditioned medium of primary cortico-hippocampal neuron cultures from Tg2576 mice (ELISA; primary and secondary dose-response screening); format: cell-based, mouse; conditions: for activity at 100 µM: Mus musculus, Neuron, 24 h, read-out: Ab1-40 (% of ctl); for activity at 100 µM / Ab1-40 (% of ctl): drug 100 μM; for reduced Aβ1-40: <85% of ctl
Outline: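 Primary cortico-hippocampal neurons from embryonic Tg2576 mice were plated at 1.0×10^5 cells per well on poly-D-lysine-coated 96-well plates in Neurobasal with 2% B27, 0.5 mM L-glutamine and 1% penicillin-streptomycin. Cultures received drug in 1% DMSO, and Aβ1-40 in the conditioned medium was measured by BioSource ELISA 24 hours after treatment, relative to vehicle controls.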

Aβ1-42 = Aβ1-42 content in conditioned medium of primary cortico-hippocampal neuron cultures from Tg2576 mice (ELISA; primary and secondary dose-response screening); format: cell-based, mouse; conditions: for activity at 100 µM: Mus musculus, Neuron, 24 h, read-out: Ab1-42 (% of ctl); for activity at 100 µM / Ab1-42 (% of ctl): drug 100 μM; for reducing Aβ1-42: <85% of ctl
Outline: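 Primary cortico-hippocampal neurons from embryonic Tg2576 mouse brain were seeded on poly-D-lysine-coated 96-well plates at 1.0×10^5 cells per well in serum-free Neurobasal medium with 2% B27, 0.5 mM L-glutamine and 1% penicillin-streptomycin. For primary screening, duplicate wells received 100 μM drug (1% DMSO final). Vehicle-treated cultures served as controls, and Aβ1-42 in conditioned medium was measured by commercial ELISA.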

[2] = system: primary cortico-hippocampal neuron cultures; assay: lactate dehydrogenase (LDH) activity assay in parallel neuron cultures
Procedure: For in vitro treatments drugs available from “The Spectrum Collection” in stocks of 10 mM in DMSO were applied directly to cultures to the desired concentrations (final 1% DMSO); control primary neuron cultures from Tg2576 embryos were treated with vehicle resulting in a final 1% DMSO.
Cell viability was assessed using a commercial available LDH assay kit according to the manufacture's instruction (Promega).

[3] = Primary Screening, table sorted by Aβ1-40
[4] = primary screening, table sorted by Aβ1-42
[5] = primary screening, Tg2576 neuron cultures, table sorted by Aβ1-42

Structure (SMILES)	MTT (% of ctl) [1, 3]	MTT (% of ctl) [1, 4]	activity at 100 µM (Aβ1-40; [3]) [%]	activity at 100 µM (Aβ1-40; [5]) [%]	reduced Aβ1-40 (Aβ1-40; primary screening)	activity at 100 µM (Aβ1-42; [3]) [%]	activity at 100 µM (Aβ1-42; [5]) [%]	reducing Aβ1-42 (Aβ1-42; primary screening)	LDH (% of ctl) [2, 3]	LDH (% of ctl) [2, 4]	Ab1-40 (% of ctl) (Aβ1-40; [3])	Ab1-40 (% of ctl) (Aβ1-40; [5])	EC50 (Aβ1-40; secondary dose-response screening 0.01-100 μM, 24 hours, read-out: EC50 (molar) Aβ1-40) [µM]	Ab1-42 (% of ctl) (Aβ1-42; [3])	Ab1-42 (% of ctl) (Aβ1-42; [5])	LDH at E-5M % of change ([2]; drug at E-5M) [%]
CC(=O)S[C@@H]1CC2=CC(=O)CC[C@]2(C)[C@H]2CC[C@@]3(C)[C@@H](CC[C@@]34CCC(=O)O4)[C@H]12 [Spironolactone]	117.0 % of ctl	117.0 % of ctl	60.4	60.4	reduced Aβ1-40	70.7	70.7	useful in reducing Aβ1-42	100.6 % of ctl	100.6 % of ctl						
CCOC(=O)[C@H](CCc1ccccc1)N[C@@H](C)C(=O)N1[C@H](C(=O)O)C[C@H]2CCCC[C@@H]21 [Trandolapril]	91.5 % of ctl	91.5 % of ctl	137	137		111	111		95.5 % of ctl	95.5 % of ctl						
NS(=O)(=O)c1cc2c(cc1Cl)NC(C1CC3C=CC1C3)NS2(=O)=O (centres unmarked) [Cyclothiazide]	97.7 % of ctl	97.7 % of ctl	71.1	71.1	reduced Aβ1-40	75	75	useful in reducing Aβ1-42	110.3 % of ctl	110.3 % of ctl						
NS(=O)(=O)c1cc2c(cc1C(F)(F)F)NC(Cc1ccccc1)NS2(=O)=O (centres unmarked) [Bendrofumethiazide]	88.9 % of ctl	88.9 % of ctl			reduced Aβ1-40			useful in reducing Aβ1-42	104.7 % of ctl	104.7 % of ctl	76.2 % of ctl	76.2 % of ctl	36.1	58.4 % of ctl	58.4 % of ctl	5.0
CC(=O)CC(c1ccccc1)c1c(O)c2ccccc2oc1=O (centres unmarked) [Warfarin]	100.1 % of ctl	100.1 % of ctl	89.4	89.4		107	107		106.6 % of ctl	106.6 % of ctl						
CC(C)c1nc(N(C)S(C)(=O)=O)nc(-c2ccc(F)cc2)c1/C=C/[C@@H](O)C[C@@H](O)CC(=O)O [Rosuvastatin]	103.8 % of ctl	103.8 % of ctl	83.6	83.6	reduced Aβ1-40	65.6	65.6	useful in reducing Aβ1-42	298.7 % of ctl	298.7 % of ctl						
CCOc1ccccc1OCCN[C@H](C)Cc1ccc(OC)c(S(N)(=O)=O)c1.Cl [Tamsulosin Hydrchloride]	96.1 % of ctl	96.1 % of ctl							102.2 % of ctl	102.2 % of ctl	106.5 % of ctl	106.5 % of ctl		91.8 % of ctl	91.8 % of ctl	
CCC(C(N)=O)c1ccccc1 (centres unmarked) [Fenbutyramide]	108.6 % of ctl	108.6 % of ctl	91.6	91.6		96.3	96.3		135.0 % of ctl	135.0 % of ctl						
NS(=O)(=O)c1cc2c(cc1C(F)(F)F)NCNS2(=O)=O [Hydroflumethiazide]	98.9 % of ctl	98.9 % of ctl	92.4	92.4		90.2	90.2		99.7 % of ctl	99.7 % of ctl						
NC[C@H]1CC[C@H](C(=O)O)CC1 [Tranexamic Acid]	96.8 % of ctl	96.8 % of ctl	84.9	84.9	reduced Aβ1-40	53.9	53.9	useful in reducing Aβ1-42	112.8 % of ctl	112.8 % of ctl						
O=C(O)c1cccnc1 [Niacin]	61.0 % of ctl	61.0 % of ctl	101	101		95	95		134.5 % of ctl	134.5 % of ctl						
NS(=O)(=O)c1cc2c(cc1Cl)N=C(CSCc1ccccc1)NS2(=O)=O [Benzthiazide]	98.5 % of ctl	98.5 % of ctl	106	106		98.9	98.9		105.1 % of ctl	105.1 % of ctl						
CC(C)(C)NCC(O)COc1cccc2[nH]c(=O)[nH]c12 (centres unmarked) [2-HYDROXY-4-(2-HYDROXY-3-T-BUTYLAMINOPROPOXY)-BENZIMIDAZOLE]	97.1 % of ctl	97.1 % of ctl	99.2	99.2		104	104		109.3 % of ctl	109.3 % of ctl						
CN1C[C@H](CNC(=O)OCc2ccccc2)C[C@@H]2c3cccc4c3c(cn4C)C[C@H]21 [Metergoline]	76.5 % of ctl	76.5 % of ctl	-3.1	-3.1	reduced Aβ1-40	2.3	2.3	useful in reducing Aβ1-42	159.3 % of ctl	159.3 % of ctl						
CC(CCc1ccccc1)NC(C)C(O)c1ccc(O)cc1 (centres unmarked) [Nylidrin Hydrochloride]	79.7 % of ctl	79.7 % of ctl	70.5	70.5	reduced Aβ1-40	90.4	90.4		115.6 % of ctl	115.6 % of ctl						
C[C@H](CS)C(=O)N1CCC[C@H]1C(=O)O [Captopril]	62.3 % of ctl	62.3 % of ctl	104	104		99.7	99.7		120.2 % of ctl	120.2 % of ctl						
O=c1oc2ccccc2c(O)c1Cc1c(O)c2ccccc2oc1=O [Dicumarol]	97.0 % of ctl	97.0 % of ctl	51.3	51.3	reduced Aβ1-40	54	54	useful in reducing Aβ1-42	93.3 % of ctl	93.3 % of ctl						
O=c1cc(-c2ccccc2)oc2cc(O)cc(O)c12 [Chrysin]	84.5 % of ctl	84.5 % of ctl	71.6	71.6		83.4	83.4		118.3 % of ctl	118.3 % of ctl						
CCC(=O)O[C@@H](O[P@](=O)(CCCCc1ccccc1)CC(=O)N1C[C@H](C2CCCCC2)C[C@H]1C(=O)O)C(C)C [Fosinopril Sodium]	101.4 % of ctl	101.4 % of ctl	94.7	94.7		95	95		75.6 % of ctl	75.6 % of ctl						
CC(C)(C)NC[C@H](O)COc1nsnc1N1CCOCC1 [Timolol Maleate]	99.2 % of ctl	99.2 % of ctl	101	101		104	104		104.4 % of ctl	104.4 % of ctl						
CCN(CC)CCOC(=O)C(Cc1cccc2ccccc12)CC1CCCO1 (centres unmarked) [Nafronyl Oxalate]	103.2 % of ctl	103.2 % of ctl	134	134		145	145		96.6 % of ctl	96.6 % of ctl						
